Reference: article PMC10487310, “Enzyme‐responsive macrocyclic metal complexes for biomedical imaging” (Bioengineering & Translational Medicine, 2022)
Where two headings read alike, the source gives them in different places. Ends that are not written are not given here.

Key:
[1] = tested on: 3T3‐L1 cells; assay: MTT cell viability; type: cell-based; conditions: 3T3 cells, 24 h treatment
Experimental: The viability of cells treated with macrocyclam derivatives was assessed by MTT and apoptosis detection assays, and by live/dead cell staining. The 3T3‐L1 cells were seeded onto 24‐well plates at a density of 1 × 10^5 cells per well for 24 h and the cells were treated with macrocyclam derivatives for 24 h. MTT (3‐(4,5‐dimethylthiazol‐2‐yl)‐2,5‐diphenyltetrazolium bromide) solution (final concentration, 500 μM) was added to each well and the cells incubated for 2 h. After aspiration of medium, the cells were dissolved in 200 μl dimethyl sulfoxide (DMSO; Sigma‐Aldrich). Formazan crystals generated by metabolically active cells were quantified by measuring optical density at 570 nm using a microplate reader (Tecan Group Ltd., Seestrasse, Mannedorf, Switzerland). Cell viability was analyzed by calculating the percent optical density of treated cells relative to control cells. Live and dead cell populations were determined using EZ‐view Live/Dead Cell Staining Kits (Biomax, Seoul, Republic of Korea). […] The absorbance of each well was measured at 490/545 nm using fluorescence microscopy (IX70; Olympus, Japan). Cell apoptosis was analyzed using a FACSCalibur flow cytometer (BD Biosciences, CA, USA) with annexin V staining. […] Cell surface expression was analyzed using a FACSCalibur flow cytometer (BD Biosciences), with the results analyzed using FlowJo software (BD Biosciences).

[2] = tested on: SCC7 tumor; type: in vivo, mice; conditions: for tumor/normal tissue (TN) ratio: Gd 0.7 mg/kg, T1-weighted signal intensity
Experimental: (§1) Five‐week‐old Balb/c or athymic nude mice (Raon Bio, Yongin, Republic of Korea) were used for in vivo experiments. All studies using animals conformed to the Guidelines for the Care and Use of Laboratory Animals of the Institute of Laboratory Animal Resources at Seoul National University (approved animal experimental protocol number, SNU‐190821‐5).
(§2) The biodistribution of macrocyclam derivatives was determined by MRI and positron emission tomography/computed tomography (PET/CT) scanning. Five‐week‐old female Balb/c nude mice were subcutaneously inoculated with 1 × 10^6 SCC7 cells on the dorsal left side. When tumor volumes reached 150 mm^3, samples were intravenously administered. For in vivo MRI, Gd@NrMC or Gd@ErMC was injected at a Gd dose of 0.7 mg/kg. The mice were monitored in vivo at different time points using an MRI scanner (Bruker‐Biospin) equipped with an animal‐imaging coil. For PET/CT imaging, ^64Cu@NrMC or ^64Cu@ErMC was injected at a ^64Cu dose of approximately 240 μCi/mouse, and the mice were monitored in vivo at different time point using a PET/CT scanner (Inveon microPET/CT scanner, Siemens Medical Solutions, Malvern, PA, USA).

[3] = tested on: SCC7 tumor; assay: In vivo PET/CT imaging of tumor-bearing mice
Experimental: as §1, §2

[4] = Copper-64 chloride loading, radioactivity by dose calibrator; type: physicochemical; conditions: sodium acetate buffer pH 5.0, 2 h at 80°C
Experimental: (§3) Metal ions are complexed with macrocyclam derivatives in acidic condition (Figure 2c). The lyophilized macrocyclam derivatives were dissolved in distilled water. A 100 nmol aliquot of NrMC or ErMC was mixed with gadolinium chloride (Sigma‐Aldrich) or radioactive copper‐64 chloride in sodium acetate buffer (pH 5.0) and incubated for 2 h at 80°C. Unloaded Gd was removed using a PD‐SpinTrap™ G‐25 column (GE Healthcare, Little Chalfont, UK). The loading amount of Gd in each sample was measured by inductively coupled plasma mass spectrometry (ICP‐MS, Varian 820‐MS; Varian, Palo Alto, CA, USA). Gd chelation consists of a reaction between the Gd^3+ and arsenazo III dye under acidic conditions to form a blue–purple complex. Radioactivity was measured using a dose calibrator (Biodex Medical Systems, Shirley, NY, USA).

[5] = tested on: SCC7 cells; assay: SEM/EDS elemental mapping of treated cells; type: cell-based, murine; conditions: 24 h
Experimental: (§4) Cellular uptake was assessed by in vitro MR imaging, ICP‐MS, and scanning electron microscopy combined with energy‐dispersive x‐ray spectroscopy (SEM/EDS) analysis. For in vitro MR imaging, murine squamous cell carcinoma SCC7 cells were seeded onto six‐well plates at a density of 3 × 10^5 cells per well. After 24 h, the cells were treated with Gadovist or macrocyclam derivatives at Gd concentrations of 100 μM for 24 h. MR images were obtained and analyzed using an MRI scanner (Bruker‐Biospin). To assess enzyme‐dependent cellular uptake, 3T3‐L1 cells were pretreated with various concentrations of MMP‐9 (Sigma‐Aldrich). For ICP‐MS analysis, the cells were washed and completely dissolved with 90% nitric acid (Sigma‐Aldrich). To quantify Gd taken up by cells, the dissolved cells were digested with 1 ml of aqua regia (HCl: HNO3 = 3: 1, m/m) at 130°C. The solutions were completely dried and redissolved in deionized water, and the amounts of Gd were measured by ICP‐MS (Varian 820‐MS). For SEM/EDS analysis, SCC7 cells were seeded in cover glass‐inserted 24‐well plates at a density of 2 × 10^5 cells per well, followed by treatment of the samples for 24 h. A field‐emission SEM system (Supra 55VP; Carl Zeiss, Oberkochen, Germany) was used for SEM imaging combined with EDS mapping.

[6] = T1 relaxivity, 7 T MRI; type: physicochemical; conditions: 37°C, Gd 37, 75, 150 and 300 μM
Experimental: (§5) The size, zeta potential, and morphology of each macrocyclam derivative were determined. Size was measured using dynamic light scattering, and zeta potential was assessed by laser Doppler microelectrophoresis at an angle of 22°, with both size and zeta potential being measured using an ELS8000 instrument (Photal, Osaka, Japan). The relaxation times of Gd‐loaded materials were examined using a 7 T/20 MRI instrument (Bruker‐Biospin, Ettlingen, Germany) at 37°C. Each sample was serially diluted to Gd concentrations of 37, 75, 150, and 300 μM, and the T1‐weighted MR signal intensities of 200‐μl samples were determined. The relaxation rate, r1 (r1 = 1/T1), for each preparation was calculated from acquired images.

[7] = tested on: SCC7 cells; assay: Cellular uptake, in vitro T1 MR imaging; type: cell-based, murine; conditions: Gd 100 μM, 24 h
Experimental: as §4

[8] = In vivo safety, H&E histology of major organs; conditions: Balb/c mice, intravenous, Gd 3.5 mg/kg, 1 week, n = 4 per group
Experimental: (§6) The in vivo safety of macrocyclam derivatives was determined by histological and serological analyses. Five‐week‐old Balb/c mice were intravenously administered with at Gd@NrMC or Gd@ErMC at a Gd dose of 3.5 mg/kg. Briefly, NrMC (470 nmol) or ErMC (650 nmol) was mixed with gadolinium chloride in sodium acetate buffer (pH 5.0) and incubated for 2 h at 80°C. Unloaded Gd was removed using a PD‐SpinTrap™ G‐25 column. The samples including 70 μg of Gd were intravenously administered to mice. After 1 week, animals (n = 4 per group) were euthanized, and their organs (heart, lung, liver, spleen, and kidney) and sera were collected for histopathological and biochemical evaluation. Extracted organs were fixed in 10% formalin solution for 24 h and embedded in paraffin. For hematoxylin and eosin staining, each organ section was immersed in filtered Harris hematoxylin for 10 s and then in eosin for 30 s. The stained slides were visualized using a Vectra 3.0 Automated Quantitative Pathology Imaging System (PerkinElmer, Hopkinton, MA, USA), and the images were analyzed using InForm v2.4.11. software (PerkinElmer). The serum concentrations of alanine aminotransferase (ALT), aspartate aminotransferase (AST), […] (ALP), blood urea nitrogen (BUN), and total bilirubin (TBIL) were measured using an automatic chemistry analyzer (DRI‐CEHM 3500s; Fujifilm, Kanagawa, Japan).

[9] = In vivo safety, serum biochemistry (ALT, AST, ALP, BUN, TBIL); conditions: Balb/c mice, Gd 3.5 mg/kg, 1 week after injection, compared with untreated mice
Experimental: as §6

[10] = Hydrodynamic size by dynamic light scattering; type: physicochemical
Experimental: as §5

[11] = Zeta potential by laser Doppler microelectrophoresis; type: physicochemical
Experimental: as §5

[12] = tested on: 3T3‐L1 cells; assay: Enzyme-dependent cellular uptake of Gd by ICP-MS, MMP-spiked versus blank media; type: cell-based; conditions: 3T3-L1 cells pretreated with MMP-9, ICP-MS
Experimental: as §4

[13] = Size stability of nanostructure in TDW, PBS or 10% serum; type: physicochemical; conditions: size measured in TDW, PBS or 10% serum (Figure S1)
Experimental: Fig. S1. Serum stability of macrocyclic complex
Size of ErMC was measured in TDW, PBS, or 10% serum condition.

[14] = Gd loading of macrocyclam derivatives by ICP-MS; type: physicochemical; conditions: gadolinium chloride in sodium acetate buffer pH 5.0, 2 h at 80°C, unloaded Gd removed on G-25 column
Experimental: as §3

[15] = tested on: SCC7 cells; assay: Cellular uptake of Gd by ICP-MS; type: cell-based, murine; conditions: Gd 100 μM, 24 h
Experimental: as §4

O=C([O-])CN1CCN(CC(=O)[O-])CCN([C@H](CO)[C@H](O)CO)CCN(CC(=O)[O-])CC1.[Gd+3] (racemic) [Gadovist, reference compound]
viability of cells (MTT) [1]: no effect | change of tumor/normal tissue (TN) ratio over time ([2]; 1 h to 24 h after intravenous injection): not enhanced over time

GGPLGVRGGGGG-OH [^64Cu@ErMC]
percentage of injected 64Cu in tumors relative to 64Cu@NrMC-treated mice ([3]; 24 h post-dose): 2.9 fold | percentage of injected 64Cu in tumors relative to 64Cu@NrMC-treated mice ([3]; 48 h post-dose): 2 fold | PET signal in tumor tissue ([3]; intravenous, approximately 240 μCi/mouse, SCC7 tumor-bearing mice): enhanced signals | copper-64 chloride loading capacity [4]: 22.4%

GGPLGVRGGGGG-OH [Gd@ErMC, Gd loaded into enzyme-responsive macrocyclam modified with a PEGylated MMP-cleavable peptide; self-assembled nanoparticles]
colocalization of Gd on the cell surface (EDS-SEM) [5]: bound to cell membranes | longevity relaxivity (r1) [6]: 33.4 mM⁻¹ s⁻¹ | T1 MRI signal of MMP-overexpressing cells [7]: higher for the Gd@ErMC group than for other groups | histology of heart, lungs, liver, spleen and kidneys [8]: no visible microscopically abnormal features | liver and kidney function enzyme levels in blood [9]: within normal range | hydrodynamic size [10]: 310.2 ± 50.2 nm | zeta potential [11]: slightly positive | Gd accumulation in cells treated with MMP relative to blank media [12]: 7.2 fold | nanostructure in physiological conditions [13]: maintained | tumor/normal tissue (TN) ratio ([2]; 1 h after intravenous injection): 1.8 | tumor/normal tissue (TN) ratio ([2]; 24 h after intravenous injection): 3.4 | gadolinium loading capacity [14]: 29.3 ± 14.5 mol% | intracellular Gd concentration relative to Gd@NrMC-treated cells [15]: 32.2 fold
